Where no end group is shown, it is not given here.
Experiments:
[1] = tested on: PRKG2; settings: previous activation data (Campbell 2017; Vaandrager 1997; Pohler 1995); cited from earlier work
[2] = pH 9
Method: To make hydrophobic CNP salts, including CNP variants, CNP-acetate is placed into water or a buffer. In a first experiment, a stock solution comprising CNP at 20 mg/mL in water was prepared. […] Disodium pamoic acid, oleic acid, or sodium docusate were placed in a buffer at a concentration that is in a molar excess to the number of oppositely charged groups on CNP, in this instance a 12 molar excess of counterion to CNP. CNP has 6 positively charged groups at pH 7, and this is a two-fold excess over the number of positively charged groups.

[3] = molecular target: T1, NPR2 (Rattus norvegicus, UniProt P16067); test: cGMP stimulation assay (CatchPoint Cyclic-GMP Fluorescent Assay) in NPR2 mutant RCS cells; assay type: cell-based
T1 construct: endogenous in cells; host or cells: RCS (rat chondrosarcoma) cells, wild-type and NPR2+/- clones
T1 sequence (P16067 17-1047): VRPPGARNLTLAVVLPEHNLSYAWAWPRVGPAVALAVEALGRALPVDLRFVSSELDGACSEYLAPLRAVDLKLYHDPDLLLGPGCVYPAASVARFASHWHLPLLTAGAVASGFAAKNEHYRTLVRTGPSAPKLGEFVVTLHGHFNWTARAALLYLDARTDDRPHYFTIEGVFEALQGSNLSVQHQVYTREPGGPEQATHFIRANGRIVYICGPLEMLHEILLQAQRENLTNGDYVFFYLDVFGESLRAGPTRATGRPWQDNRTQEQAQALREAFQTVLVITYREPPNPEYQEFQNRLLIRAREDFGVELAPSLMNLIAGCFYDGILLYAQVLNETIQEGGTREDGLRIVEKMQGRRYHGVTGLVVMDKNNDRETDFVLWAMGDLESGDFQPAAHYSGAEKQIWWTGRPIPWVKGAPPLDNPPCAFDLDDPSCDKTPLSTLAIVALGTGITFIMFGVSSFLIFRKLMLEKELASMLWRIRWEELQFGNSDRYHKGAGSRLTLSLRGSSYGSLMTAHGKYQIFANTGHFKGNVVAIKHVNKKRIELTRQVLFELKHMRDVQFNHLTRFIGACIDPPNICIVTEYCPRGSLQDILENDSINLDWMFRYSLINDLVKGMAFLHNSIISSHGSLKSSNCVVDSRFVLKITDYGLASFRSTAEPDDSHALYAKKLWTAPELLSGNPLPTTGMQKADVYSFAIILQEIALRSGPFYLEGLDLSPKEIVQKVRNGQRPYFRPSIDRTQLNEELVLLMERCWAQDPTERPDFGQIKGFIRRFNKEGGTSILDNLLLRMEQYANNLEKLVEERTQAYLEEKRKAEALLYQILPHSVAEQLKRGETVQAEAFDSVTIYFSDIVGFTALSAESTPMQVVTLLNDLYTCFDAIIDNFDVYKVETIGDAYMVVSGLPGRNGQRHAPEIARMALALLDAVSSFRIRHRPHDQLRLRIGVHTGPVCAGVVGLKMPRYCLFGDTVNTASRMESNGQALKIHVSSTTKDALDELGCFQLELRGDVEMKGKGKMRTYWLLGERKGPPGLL
Method: To determine the effects of CNP on subjects with short stature resulting from NPR2 mutations, cellular models of NPR2 mutations were developed. Exemplary NPR2 mutations analyzed are set out in FIG. 5. Rat chondrosarcoma (RCS) cells having either a knockout of, or heterozygous loss of function mutations in, the NPR2 gene were made by RNP transfection into RCS cells using 125 ng NPR2 variants or wild-type NPR2 plasmid DNA transfected into RCS or HEK293 cells. Single cell clones were seeded and genotyped by Sanger sequencing. Cell models are able to reproduce published cGMP phenotypes of the different mutations.
The NPR2 clones were created by creating insertions and deletions in the first exon of NPR2 in RCS cells. The sequence of the first exon in NPR2 was confirmed by next-generation sequencing and is set out in FIG. 4. NPR2 mutant cells were tested for activity in response to CNP administration by a cGMP stimulation assay using a CatchPoint Cyclic-GMP Fluorescent Assay after treatment with 6 nM of Pro-Gly CNP37. Briefly, NIH3T3 cells (ATCC, CRL-1658) and NPR-transfected HEK293 cells were seeded at 60,000 cells/well in a 96-well plate (96-well black imaging plates, Grenier, #655090). RCS (rat chondrosarcoma) cells were seeded at 40,000 cells/well. Culture media was as follows: NIH3T3 culture media: DMEM high glucose, pyruvate (Thermo, 11995-073)+10% FBS+1× Pen Strep (abbrev P/S, Thermo, cat #15140122). NIH3T3 was the control system for the cGMP assay HEK293 culture media: EMEM+10% FBS+1×P/S+1×GMAX. RCS culture media: DMEM+10% FBS+1× Pen Strep. Serum free NIH3T3 media: DMEM+1×P/S for treatment of cells with IBMX (CAS 28822-58-4); Serum free NIH3T3 media with BSA: DMEM+1×P/S+0.5 mg/mL BSA (Thermo, A9418-100G) for treatment of cells with CNP.
Cells were incubated for 24 hours at 37° C., 5% CO2. For cells to be treated with CNP variants, plates were pre-treated with IBMX (Enzo life sciences, 89161-340, 1 g) 15 minutes prior to use. IBMX is a potent, non-specific inhibitor of phosphodiesterases. An 800 mM stock solution of IBMX is diluted in IBMX dilution media (serum-free media (DMEM+[…] mixed 1:1 with 1×PBS) to a 0.75 mM working stock.
For cell treatment, cells were removed from the incubator, growth media was removed from cells and cells treated with IBMX. 80 μL 0.75 mM IBMX was added to each well and cells returned to 37° C. incubator for 15 minutes. […]
The cGMP assay was carried out using a cGMP calibrator, rabbit anti-cGMP antibody and HRP-cGMP prepared as according to manufacturer's protocol. 40 μL of calibrator was added to wells of an anti-cGMP antibody coated plated, and 40 μL of lysate to be analyzed added to the appropriate wells. […] The plate was read for fluorescence intensity on a Spectramax M, or similar instrument, at excitation 530 nm and emission at 590 nm.

[4] = tested on: mice deficient in Nf1 in type II collagen producing cells; settings: daily injections; cited from earlier work
[5] = tested on: mouse model of Cardiofaciocutaneous syndrome using a Braf mutation (p.Q241R); settings: in vivo; cited from earlier work
[6] = molecular target: T2, NPR—B (Homo sapiens, UniProt P20594); settings: cited from earlier work
T2 sequence (P20594 23-1047): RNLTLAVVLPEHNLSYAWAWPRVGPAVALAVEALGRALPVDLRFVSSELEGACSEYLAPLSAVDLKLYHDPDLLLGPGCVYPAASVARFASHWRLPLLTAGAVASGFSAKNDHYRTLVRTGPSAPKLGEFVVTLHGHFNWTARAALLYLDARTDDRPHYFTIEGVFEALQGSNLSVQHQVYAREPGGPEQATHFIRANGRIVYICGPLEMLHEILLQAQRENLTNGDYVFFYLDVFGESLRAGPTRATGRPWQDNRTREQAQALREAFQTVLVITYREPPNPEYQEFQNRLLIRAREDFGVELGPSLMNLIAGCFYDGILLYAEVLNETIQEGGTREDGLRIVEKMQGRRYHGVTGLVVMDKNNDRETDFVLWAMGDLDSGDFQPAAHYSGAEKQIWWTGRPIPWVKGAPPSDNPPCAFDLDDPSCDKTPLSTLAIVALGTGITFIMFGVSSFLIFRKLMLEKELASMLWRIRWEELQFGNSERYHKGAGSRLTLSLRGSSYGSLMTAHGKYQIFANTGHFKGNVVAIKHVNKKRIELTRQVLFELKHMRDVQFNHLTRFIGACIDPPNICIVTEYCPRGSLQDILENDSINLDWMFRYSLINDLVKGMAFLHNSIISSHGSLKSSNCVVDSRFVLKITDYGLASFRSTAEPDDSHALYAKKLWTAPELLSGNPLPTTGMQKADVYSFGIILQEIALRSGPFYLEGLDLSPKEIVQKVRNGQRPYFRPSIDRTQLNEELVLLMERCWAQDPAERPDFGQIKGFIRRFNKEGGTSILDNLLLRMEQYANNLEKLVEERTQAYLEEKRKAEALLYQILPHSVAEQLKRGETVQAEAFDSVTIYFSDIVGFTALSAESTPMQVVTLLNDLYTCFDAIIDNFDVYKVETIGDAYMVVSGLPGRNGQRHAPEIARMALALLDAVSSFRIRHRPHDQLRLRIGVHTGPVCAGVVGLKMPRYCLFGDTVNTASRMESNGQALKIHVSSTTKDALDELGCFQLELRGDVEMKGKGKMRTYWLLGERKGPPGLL

[7] = cited from earlier work

In the case of `Nc1nc2c(ncn2[C@@H]2O[C@@H]3COP(=O)(O)O[C@H]3[C@H]2O)c(=O)[nH]1` [cGMP, guanosine 3′,5′ cyclic monophosphate], the EC50 [1] is given as 40 to 360 nM.
In the case of `CCCCC(CC)COC(=O)CC(C(=O)OCC(CC)CCCC)S(=O)(=O)[O-].[Na+]` (centres unmarked) [sodium docusate], the solubility of counterion [2] is reported as “soluble”.
For “CNP: C-type natriuretic peptide; in the cGMP assay cells were treated with Pro-Gly CNP37 (PGQEHPNARKYKGANKKGLSKGCFGLKLDRIGSMSGLGC; not fully specified (N-terminus, C-terminus); ends and bridges not checked)”, the “rescue of NPR2 signaling” value ([3]; cell model of NPR2 haploinsufficiency, exogenous CNP) was “dose-dependent rescue of NPR2 signaling”, the “CNP dose able to achieve an intracellular cGMP concentration exceeding the EC50 range for PRKG2 activation” value ([3]; heterozygous NPR2 knockout cells) was > 0.163 nM and the “CNP dose able to achieve the same cGMP concentration” value ([3]; wild-type cells) was 0.040 nM. For the same compound, the ERK phosphorylation [4] was “decreased ERK phosphorylation”, the short stature [4] was “corrected the short stature” and the body length [5] was “increases in body length”.
With “PGQEHPNARKYKGANKKGLSKGCFGLKLDRIGSMSGLGC (not fully specified (N-terminus, C-terminus); cysteine pairing not given here) [Pro-Gly-CNP37, CNP variant]” the cGMP readout ([3]; NPR2+/− rat chondrosarcoma cell model, exogenous peptide (FIG. 3)) was “rescues cGMP readout”.
In the case of GLSKGCFGLKLDRIGSMSGLGC [CNP-22], the “binding to NPR—B” value [6] is listed as “bind similarly”.
In the case of `CCCCCCCC/C=C\CCCCCCCC(=O)O` [oleic acid], the solubility of counterion [2] is given as “soluble” and the pKa [7] is given as 4-5.
In the case of “DLRVDTKSRAAWARLLQEHPNARKYKGANKKGLSKGCFGLKLDRIGSMSGLGC [CNP-53]”, the “binding to NPR—B” value [6] is listed as “bind similarly”.
For `O=C(O)c1cc2ccccc2c(Cc2c([O-])c(C(=O)O)cc3ccccc23)c1[O-].[Na+].[Na+]` [disodium pamoic acid], the solubility of counterion [2] was “soluble”.
